Patent US11420998B2, “Aromatic-cationic peptides and methods for using same” (Stealth Biotherapeutics Inc., priority 2011, dated 2022)
Square brackets hold non-standard residues; d marks the D form. Ends that are not written are not given here. Peptide text beside a SMILES is read from it. Dmt = Cc1cc(O)cc(C)c1C[C@H](N)C(=O)O

Key:
[1] = test system: several mammalian cell types; conditions: energy-independent manner (Zhao et al., 2003); cited from earlier work
[2] = in vivo
Description: Six weeks after induction of RAS, animals were similarly anesthetized, the degree of stenosis determined by angiography, and subjects were treated with PTRA or sham. Heating pads maintained the animal's body temperature by about 37° C. during surgery, and PTRA and stenting performed under fluoroscopic guidance, as previously described. In addition, ARAS subjects were treated with a continuous intravenous infusion of peptide 0.050 mg/kg or an equal volume of saline vehicle from 30 min before to 3.5 hrs after PTRA or sham. […] Urinary samples were collected before peptide infusion and 210 min after PTRA.
4 mL venous whole blood samples were collected from peptide-treated animals at baseline (immediately before peptide infusion), immediately before PTRA, and 30 and 180 min post-reperfusion. Venous blood were drawn using syringes into BD Vacutainer® PST™ Plasma Separation Tubes (lavender top) containing K2EDTA, 10 mL/tube. Tubes were gently inverted 8 times and kept in an ice water bath until centrifugation. Within an hour samples were centrifuged in a swing bucket centrifuge at 1000-1300 RCF (or […]) for 15 min at 4° C. Plasma were harvested from individual blood tubes, placed in a single polypropylene vials (or screw-cap tubes) and stored at approximately −80° C. until assay.
The plasma concentration of D-Arg-2′,6′-Dmt-Lys-Phe-NH2 was determined using a qualified LC/MS/MS assay in K2-EDTA pig plasma. The assay employed deuterium labeled d5-D-Arg-2′,6′-Dmt-Lys-Phe-NH2 as the analytical internal standard (IS). […] Positive (M+2H)^2+ ions for D-Arg-2′,6′-Dmt-Lys-Phe-NH2 and the IS (d5-D-Arg-2′,6′-Dmt-Lys-Phe-NH2) were monitored in MRM mode. Drug-to-IS peak area ratios for the standards were used to create a linear calibration curve ranging from 2.5 to 1000 ng/mL.
Peptide IV infusion started at 30 minutes prior to the PTRA procedure and continued for 210 minutes at 0.05 mg/kg/h.

[3] = test system: inner mitochondrial membrane; conditions: cited from earlier work
[4] = target: mu-opioid receptor (Homo sapiens, UniProt P35372); conditions: stated without data; assays cited; cited from earlier work
Chain of mu-opioid receptor (P35372 whole entry, species assumed): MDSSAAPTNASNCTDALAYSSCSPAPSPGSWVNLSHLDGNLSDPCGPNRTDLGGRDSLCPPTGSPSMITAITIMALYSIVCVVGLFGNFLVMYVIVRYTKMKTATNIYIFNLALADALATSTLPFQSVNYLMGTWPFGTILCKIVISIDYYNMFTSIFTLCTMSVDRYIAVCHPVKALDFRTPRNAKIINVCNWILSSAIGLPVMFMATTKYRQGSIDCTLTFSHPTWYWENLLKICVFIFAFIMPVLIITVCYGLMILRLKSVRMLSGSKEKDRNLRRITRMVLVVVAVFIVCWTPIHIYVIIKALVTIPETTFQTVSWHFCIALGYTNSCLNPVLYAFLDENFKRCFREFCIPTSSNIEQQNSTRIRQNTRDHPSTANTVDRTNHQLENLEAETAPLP

Question: For 2′,6′-Dmt-D-Arg-Phe-Lys-NH2, which “penetration of the plasma membrane” value [1] is on record?
Answer: Its value is “readily penetrates”.

Question: Which results are given for `Cc1cc(O)cc(C)c1C[C@H](NC(=O)[C@H](N)CCCNC(=N)N)C(=O)N[C@@H](CCCCN)C(=O)N[C@@H](Cc1ccccc1)C(N)=O` [D-Arg-2′,6′-Dmt-Lys-Phe-NH2] (H-[dR][Dmt]KF-NH2)?
Answer: Mean peptide Concentration ([2]; 0 min from peptide infusion (−30 min from PTRA), 3.5-h IV infusion 0.05 mg/kg/h): BQL; Mean peptide Concentration ([2]; 30 min from peptide infusion (time of PTRA), IV infusion 0.05 mg/kg/h): 100.6 ± 36.2 ng/mL; Mean peptide Concentration ([2]; 30 min from peptide infusion (time of PTRA), IV infusion 0.05 mg/kg/h, listed as Peptide): 100.6 ng/mL; level at 0.5 h ([2]; pig, plasma, iv, 0.05 mg/kg/h, Mean peptide Concentration, 30 min from peptide infusion (time of PTRA), IV infusion 0.05 mg/kg/h): ~100 ng/mL; level at 1 h ([2]; pig, plasma, iv, 0.05 mg/kg/h, Mean peptide Concentration, 60 min from peptide infusion (30 min from PTRA), IV infusion 0.05 mg/kg/h): 118 ± 23.7 ng/mL; level at 1.5 h ([2]; pig, plasma, iv, 0.05 mg/kg/h, Mean peptide Concentration, 90 min from peptide infusion (60 min from PTRA), IV infusion 0.05 mg/kg/h): 125 ± 21.4 ng/mL; level at 3.5 h ([2]; pig, plasma, iv, 0.05 mg/kg/h, Mean peptide Concentration, 210 min from peptide infusion (180 min from PTRA), IV infusion 0.05 mg/kg/h): 111 ± 42 ng/mL; time to apparent steady state concentration ([2]; post start of IV infusion): 60 to 90 min; concentration in the inner mitochondrial membrane [3]: 500-5000 fold

Question: Which “mu-opioid receptor agonist activity” value [4] does the source give for F[dR]FK-NH2 here?
Answer: Its value is “does not have mu-opioid receptor agonist activity”.

Question: For Tyr-D-Arg-Phe-Lys-NH2, which “mu-opioid receptor agonist activity” value [4] is on record?
Answer: Its value is “has mu-opioid receptor agonist activity”.
